The assay concerns the target human recombinant H-PGDS (Homo sapiens, UniProt O60760). The assay is described as follows: Fluorescence intensity h-PGDS TBA enzyme assay. The class given is biochemical. Conditions: Examples up to 622 (and 3a, 3b).

As usually defined, the IC50 is the concentration needed to halve the response being measured.

Chain of human recombinant H-PGDS (O60760 whole entry): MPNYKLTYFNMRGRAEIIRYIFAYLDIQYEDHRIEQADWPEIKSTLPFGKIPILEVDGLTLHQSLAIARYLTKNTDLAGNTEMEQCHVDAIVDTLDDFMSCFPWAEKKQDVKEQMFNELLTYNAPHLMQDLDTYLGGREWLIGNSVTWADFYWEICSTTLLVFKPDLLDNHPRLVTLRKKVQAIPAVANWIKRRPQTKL

With `Nc1nc(N2CCC(NC(=O)c3ccc(-c4cccc(F)c4)nc3)CC2)c2nc[nH]c2n1` [Example 132, N-[1-(2-Amino-9H-purin-6-yl)piperidin-4-yl]-6-(3-fluorophenyl)nicotinamide], the IC50 is 0.365 nM. Then `Cc1nc(N)cc(N2CCC(NC(=O)c3ccc(-c4cccc(F)c4)nc3)CC2)n1` [Example 133, N-[1-(6-Amino-2-methylpyrimidin-4-yl)piperidin-4-yl]-6-(3-fluorophenyl)nicotinamide], with 0.395 nM. Then `Cc1cnc(C)c(N2CCC(NC(=O)c3ccc(-c4cccc(F)c4)nc3)CC2)n1` [Example 134, N-[1-(3,6-Dimethylpyrazin-2-yl)piperidin-4-yl]-6-(3-fluorophenyl)nicotinamide], with 1.81 nM; and `O=C(NC1CCN(c2ncccc2C(F)(F)F)CC1)c1ccc(-c2cccc(F)c2)nc1` [Example 135, 6-(3-Fluorophenyl)-N-{1-[3-(trifluoromethyl)pyridin-2-yl]piperidin-4-yl}nicotinamide], with 1.47 nM.

As for `O=C(NC1CCN(c2nccc(C(F)(F)F)n2)CC1)c1ccc(-c2cccc(F)c2)nc1` [Example 136, 6-(3-Fluorophenyl)-N-{1-[4-(trifluoromethyl)pyrimidin-2-yl]piperidin-4-yl}nicotinamide], the IC50 was found to be 5.12 nM.

Consider `O=C(NC1CCN(c2ccc(Cl)cn2)CC1)c1ccc(-c2cccc(F)c2)nc1` [Example 137, N-[1-(5-Chloropyridin-2-yl)piperidin-4-yl]-6-(3-fluorophenyl)nicotinamide], for which the IC50 worked out at 1.41 nM. Regarding `O=C(NC1CCN(c2cnc3ccccc3n2)CC1)c1ccc(-c2cccc(F)c2)nc1` [Example 138, 6-(3-Fluorophenyl)-N-(1-quinoxalin-2-ylpiperidin-4-yl)nicotinamide], the IC50 was 1.23 nM. Take `O=C(NC1CCN(c2ncccn2)CC1)c1ccc(-c2cccc(F)c2)nc1` [Example 139, 6-(3-Fluorophenyl)-N-(1-pyrimidin-2-ylpiperidin-4-yl)nicotinamide]: the IC50 was 0.222 nM. Then `N#Cc1cccnc1N1CCC(NC(=O)c2ccc(-c3cccc(F)c3)nc2)CC1` [Example 140, N-[1-(3-Cyanopyridin-2-yl)piperidin-4-yl]-6-(3-fluorophenyl)nicotinamide], with 0.628 nM; and `Cc1noc(NC(=O)c2cccnc2N2CCC(NC(=O)c3ccc(-c4cccc(F)c4)nc3)CC2)c1C#N` [Example 141, N-(4-Cyano-3-methylisoxazol-5-yl)-2-[4-({[6-(3-fluorophenyl)pyridin-3-yl]carbonyl}amino)piperidin-1-yl]nicotinamide], with 0.721 nM. Then `N#Cc1nccnc1N1CCC(NC(=O)c2ccc(-c3cccc(F)c3)nc2)CC1` [Example 142, N-[1-(3-Cyanopyrazin-2-yl)piperidin-4-yl]-6-(3-fluorophenyl)nicotinamide], with 0.33 nM; and `Cc1cc(N(C)C)nc(N2CCC(NC(=O)c3ccc(-c4cccc(F)c4)nc3)CC2)n1` [Example 143, N-{1-[4-(Dimethylamino)-6-methylpyrimidin-2-yl]piperidin-4-yl}-6-(3-fluorophenyl)nicotinamide], with 0.688 nM; and `COCc1cc(N2CCC(NC(=O)c3ccc(-c4cccc(F)c4)nc3)CC2)nc(-c2ccccc2)n1` [Example 144, 6-(3-Fluorophenyl)-N-{1-[6-(methoxymethyl)-2-phenylpyrimidin-4-yl]piperidin-4-yl}nicotinamide], with 9.56 nM.

`CCOC(=O)c1cnc(C(F)(F)F)nc1N1CCC(NC(=O)c2ccc(-c3cccc(F)c3)nc2)CC1` [Example 145, Ethyl 4-[4-({[6-(3-fluorophenyl)pyridin-3-yl]carbonyl}amino)piperidin-1-yl]-2-(trifluoromethyl)pyrimidine-5-carboxylate]: the IC50 was determined as 5.94 nM. Regarding `O=C(NC1CCN(c2ncccc2C(=O)N2CCOCC2)CC1)c1ccc(-c2cccc(F)c2)nc1` [Example 146, 6-(3-Fluorophenyl)-N-{1-[3-(morpholin-4-ylcarbonyl)pyridin-2-yl]piperidin-4-yl}nicotinamide], the half-inhibitory concentration (IC50) turned out to be 1.55 nM.
